The results in this text go back to US20050282818A1, “Ubiquitin ligase inhibitors” (Rigel Pharmaceuticals, Inc., priority 2004, published 2005).

One test addresses T1, ROC1/CUL1 (Homo sapiens, UniProt P62877+Q13616).
T1 construct: made in house
Description: ROC1/CUL1 ubiquitin ligase assay (SCF assay). Type of test: biochemical. The method, then:
Inhibition of ubiquitin ligase activity of E1+E2+E3 was measured using the protocol as described in WO 01/75145 with E3 as the ROC1/CUL1, ROC1/CUL2, or ROC2/CUL5 complex.
The wells of nickel-substrate 96-well plates (Pierce Chemical) are blocked with 100 μl of 1 casein/phosphate buffered saline (PBS) for 1 hour at room temperature, then washed with 200 μl of PBST (0.1% Tween-20 in PBS) 3 times. To each well is added the following Flag-ubiquitin (see above) reaction solution: 62.5 mM Tris pH 7.5, 6.25 mm MgCl2, 0.75 mM DTT, 2.5 mM ATP, 2.5 mM NaF1, 2.5 nM Okadaic acid, 100 ng Flag-ubiquitin (made as described above).
The buffer solution is brought to a final volume of 80 μl with Milipore-filtered water, followed by the addition of 10 μl DMSO.
To the above solution is then added 10 μl of ubiquitination enzymes in 20 mM Tris buffer, pH 7.5, and 5% glycerol. E2-Ubch5c and E3-His ROC1/Cul1, ROC1/CUL2, and ROC2/CUL5 are made as described in WO 01/75145. E1 is obtained commercially (Affiniti Research Products, Exeter, U. K.). The following amounts of each enzyme are used for these assays: 5 ng/well of E1; […] E2; and 100 ng/well His-E3. Varying amounts of compounds according to the invention are added and the reaction allowed to proceed at room temperature for 1 hour.
Following the ubiquitination reaction, the wells are washed with 200 μl of PBST 3 times. For measurement of the enzyme-bound ubiquitin, 100 gel of Mouse anti-Flag (1:10,000) and anti-Mouse Ig-HRP (1:15, 000) in PBST are added to each well and allowed to incubate at room temperature for 1 hour. The wells are then washed with 200 μl of PBST 3 times, followed by the addition of 100 μl of luminol substrate (1/5 dilution). Luminescence for each well is then measured using a fluorimeter.
Table 2 below illustrates the inhibitory activity of the compounds of the invention determined by the TRAF6/Uev1A/Ubc13 assay as well as in the ICAM, APC and the ROC1/CUL1 Ubiquitin Ligase Assay (SCF Assay). The IC50 values were determined using a various concentrations of the compounds.

A further test deals with T2, TRAF6/Uev1A/Ubc13 (Homo sapiens, UniProt Q9Y4K3).
T2 sequence (Q9Y4K3 1-522): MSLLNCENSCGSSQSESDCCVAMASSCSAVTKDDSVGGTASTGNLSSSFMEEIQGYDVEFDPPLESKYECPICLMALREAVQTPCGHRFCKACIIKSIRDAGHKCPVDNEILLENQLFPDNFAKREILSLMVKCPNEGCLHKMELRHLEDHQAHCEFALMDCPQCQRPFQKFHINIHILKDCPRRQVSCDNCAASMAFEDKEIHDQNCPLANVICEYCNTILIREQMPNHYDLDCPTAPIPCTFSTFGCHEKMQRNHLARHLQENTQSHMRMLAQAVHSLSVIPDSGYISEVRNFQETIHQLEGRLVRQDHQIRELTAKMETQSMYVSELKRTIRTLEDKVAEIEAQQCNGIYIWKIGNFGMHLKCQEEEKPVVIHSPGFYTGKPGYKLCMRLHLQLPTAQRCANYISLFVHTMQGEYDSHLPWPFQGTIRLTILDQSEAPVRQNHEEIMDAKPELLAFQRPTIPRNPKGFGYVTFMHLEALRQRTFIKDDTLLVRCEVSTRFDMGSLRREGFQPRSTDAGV
Description: TRAF6/Uev1A/Ubc13 plate-based ubiquitin ligase assay. The test is classed as biochemical. The method in brief: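 Ligase activity was read as luminescence from anti-Flag/HRP detection of Flag-ubiquitin bound to casein-blocked Ni-plates alongside His-ubiquitin after a 1 h room-temperature reaction. Buffer: 62.5 mM Tris pH 7.5, 6.25 mM MgCl2, 1.0 mM DTT, 2 μM ATP; E1, Uev1a/Ubc13 and TRAF6 added last to start. IC50s derived across compound concentrations.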

A further test addresses APC11/APC2 (Homo sapiens, UniProt Q9NYG5+Q9UJX6). Description: APC-11/APC-2 ligase assay (APC auto ubiquitination). Type of test: biochemical. As to conditions: APC assay. In a few lines:
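His-tagged APC was captured on nickel plates with human E1 (5 ng/well), UbcH5c (20 ng/well), APC (100 ng/well) and Flag-ubiquitin (100 ng/well) in a Tris pH 7.6 reaction buffer containing 2.5 mM ATP, for 1 hour at room temperature. Read-out was anti-Flag/HRP chemiluminescence. IC50 was set against a DMSO control, typically from 6 or 8 concentrations.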

Test [1] has as its system ICAM-1 expression in A549 cells. The test is described as follows: ICAM assay (IL-1 induced ICAM-1/CD54 expression in A549 cells). Type of test: cell-based, human. As to conditions: Homo sapiens, A549, ICAM assay. The method in brief:
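Luminescent immunostaining (anti-CD54, then anti-mouse IgG, 1 h) quantifies ICAM-1 on A549 cells induced 4 h at 37° C by IL-1 (4 μl of 25 ng/ml added). Compound is added 1 h before the cytokine to cells plated overnight at 10,000 per well.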

The structures appear in SMILES notation.

T1 sequence (P62877 whole entry): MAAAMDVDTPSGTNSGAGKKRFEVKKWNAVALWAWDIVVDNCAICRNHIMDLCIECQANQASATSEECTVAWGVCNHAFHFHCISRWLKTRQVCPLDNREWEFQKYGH
T1 sequence (Q13616 whole entry): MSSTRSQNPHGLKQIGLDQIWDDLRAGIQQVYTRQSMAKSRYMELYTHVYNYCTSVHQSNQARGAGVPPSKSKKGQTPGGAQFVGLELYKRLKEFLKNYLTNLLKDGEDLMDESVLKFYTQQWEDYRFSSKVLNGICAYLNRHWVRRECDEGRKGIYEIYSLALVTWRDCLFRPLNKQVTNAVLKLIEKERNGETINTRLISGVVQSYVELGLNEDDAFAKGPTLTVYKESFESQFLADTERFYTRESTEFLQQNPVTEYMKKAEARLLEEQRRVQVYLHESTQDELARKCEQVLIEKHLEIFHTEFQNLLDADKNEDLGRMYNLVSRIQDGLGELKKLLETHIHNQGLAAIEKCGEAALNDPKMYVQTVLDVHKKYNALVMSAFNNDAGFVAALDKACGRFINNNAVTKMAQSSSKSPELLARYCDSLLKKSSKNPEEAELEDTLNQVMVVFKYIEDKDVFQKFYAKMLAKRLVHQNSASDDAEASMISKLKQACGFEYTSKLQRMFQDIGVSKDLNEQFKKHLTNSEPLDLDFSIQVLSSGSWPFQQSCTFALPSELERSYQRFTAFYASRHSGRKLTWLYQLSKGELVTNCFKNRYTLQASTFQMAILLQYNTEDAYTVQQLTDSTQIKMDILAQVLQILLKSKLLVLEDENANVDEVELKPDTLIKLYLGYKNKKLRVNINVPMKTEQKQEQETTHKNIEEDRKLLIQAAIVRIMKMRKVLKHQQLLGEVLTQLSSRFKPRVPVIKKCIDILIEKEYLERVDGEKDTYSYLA
Sequence of APC11/APC2 (Q9NYG5 whole entry): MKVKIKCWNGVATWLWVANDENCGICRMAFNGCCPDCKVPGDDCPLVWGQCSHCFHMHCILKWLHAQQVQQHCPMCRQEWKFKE
Sequence of APC11/APC2 (Q9UJX6 whole entry): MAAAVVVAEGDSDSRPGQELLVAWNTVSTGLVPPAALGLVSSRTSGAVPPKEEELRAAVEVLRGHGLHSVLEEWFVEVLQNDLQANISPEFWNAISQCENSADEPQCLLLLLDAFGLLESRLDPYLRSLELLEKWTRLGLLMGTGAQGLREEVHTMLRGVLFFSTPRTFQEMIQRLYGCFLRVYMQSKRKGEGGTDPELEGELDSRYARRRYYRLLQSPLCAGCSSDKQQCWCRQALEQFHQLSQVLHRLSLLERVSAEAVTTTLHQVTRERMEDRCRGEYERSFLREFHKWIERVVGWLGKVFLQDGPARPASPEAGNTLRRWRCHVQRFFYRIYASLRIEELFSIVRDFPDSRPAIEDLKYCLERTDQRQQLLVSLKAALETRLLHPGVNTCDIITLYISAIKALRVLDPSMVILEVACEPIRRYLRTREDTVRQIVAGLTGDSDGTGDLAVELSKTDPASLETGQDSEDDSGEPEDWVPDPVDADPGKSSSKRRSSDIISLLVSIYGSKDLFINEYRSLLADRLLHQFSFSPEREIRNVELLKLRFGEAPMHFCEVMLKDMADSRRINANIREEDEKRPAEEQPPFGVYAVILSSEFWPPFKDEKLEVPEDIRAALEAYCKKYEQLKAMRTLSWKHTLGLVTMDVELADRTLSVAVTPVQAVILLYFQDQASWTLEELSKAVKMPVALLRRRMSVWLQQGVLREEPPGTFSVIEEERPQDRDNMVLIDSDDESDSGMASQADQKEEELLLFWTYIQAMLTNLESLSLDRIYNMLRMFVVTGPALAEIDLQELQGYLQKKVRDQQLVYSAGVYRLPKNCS

The IC50 is the concentration needed to halve the response being measured. Read a high IC50 as a need for much substance. Take `CC(=O)OCCCNc1cc(Sc2nnc(C)s2)c2nonc2c1[N+](=O)[O-]` [compound 133, 3-({7-[(5-methyl-1,3,4-thiadiazol-2-yl)thio]-4-nitro-2,1,3-benzoxadiazol-5-yl}amino)propyl acetate]: the IC50 on ROC1/CUL1 and at TRAF6/Uev1A/Ubc13 was not below 20 µM in each case.
`CCCSc1cc(NCCCOC(C)=O)c([N+](=O)[O-])c2nonc12` [compound 134, 4-{[4-nitro-7-(propylthio)-2,1,3-benzoxadiazol-5-yl]amino}propyl acetate]: the half-maximal inhibitory concentration (IC50) against ROC1/CUL1 and on TRAF6/Uev1A/Ubc13 was not below 20 µM throughout.
With `CC(=O)OCCCNc1cc(SC2CCCCC2)c2nonc2c1[N+](=O)[O-]` [compound 135, 3-{[7-(cyclohexylthio)-4-nitro-2,1,3-benzoxadiazol-5-yl]amino}propyl acetate], the IC50 against ROC1/CUL1 and against TRAF6/Uev1A/Ubc13 was not below 20 µM in each case.
With `CC(=O)OCCCNc1cc(SCc2ccco2)c2nonc2c1[N+](=O)[O-]` [compound 136, 3-({7-[(2-furylmethyl)thio]-4-nitro-2,1,3-benzoxadiazol-5-yl}amino)propyl acetate], the half-inhibitory concentration (IC50) on ROC1/CUL1 and against TRAF6/Uev1A/Ubc13 was not below 20 µM each time.
`CCOC(=O)CSc1cc(NCCCOC(C)=O)c([N+](=O)[O-])c2nonc12` [compound 137, ethyl [(6-{[3-(acetyloxy)propyl]amino}-7-nitro-2,1,3-benzoxadiazol-4-yl)thio]acetate]: the IC50 against ROC1/CUL1 and on TRAF6/Uev1A/Ubc13 was not below 20 µM each time.
As to `CC1CN(S(=O)(=O)c2c(Sc3cccc4cccnc34)ccc3nonc23)CC(C)O1` (stereo not shown) [compound 216, 8-({4-[(2,6-dimethylmorpholin-4-yl)sulfonyl]-2,1,3-benzoxadiazol-5-yl}thio)quinoline], the IC50 is not below 20 µM at ROC1/CUL1 and 1 to 20 µM against TRAF6/Uev1A/Ubc13.
Regarding `O=[N+]([O-])c1ccc(Nc2ccc3cn[nH]c3c2)c2nonc12` [compound 223, N-1H-indazol-6-yl-7-nitro-2,1,3-benzoxadiazol-4-amine], the half-maximal inhibitory concentration (IC50) is not below 20 µM on ROC1/CUL1 and 1 to 20 µM on TRAF6/Uev1A/Ubc13.
The matching figures for `COC(=O)c1ccc(NS(=O)(=O)c2ccc(Sc3ccncc3)c3nonc23)cc1` [compound 256, methyl 4-({[7-(pyridin-4-ylthio)-2,1,3-benzoxadiazol-4-yl]sulfonyl}amino)benzoate]: not below 20 µM and not below 20 µM.
Consider `O=S(=O)(Nc1ccc(F)c(F)c1)c1ccc(Nc2ccc(F)c(F)c2)c2nonc12` [compound 264, N-(3,4-difluorophenyl)-7-[(3,4-difluorophenyl)amino]-2,1,3-benzoxadiazole-4-sulfonamide], for which the IC50 against ROC1/CUL1 and against TRAF6/Uev1A/Ubc13 was not below 20 µM in each case.
`CN1CCN(S(=O)(=O)c2ccc(Sc3ccc(O)cc3)c3nonc23)CC1` [compound 266, 4-({7-[(4-methylpiperazin-1-yl)sulfonyl]-2,1,3-benzoxadiazol-4-yl}thio)phenol]: the 50% inhibitory concentration (IC50) against ROC1/CUL1 and against TRAF6/Uev1A/Ubc13 was not below 20 µM each time.
With `CN1CCN(S(=O)(=O)c2ccc(Sc3cccc4ccccc34)c3nonc23)CC1` [compound 267, 4-[(4-methylpiperazin-1-yl)sulfonyl]-7-(1-naphthylthio)-2,1,3-benzoxadiazole], the half-inhibitory concentration (IC50) at ROC1/CUL1 and at TRAF6/Uev1A/Ubc13 was not below 20 µM in each case.
As for `COc1ccccc1Sc1ccc(S(=O)(=O)N2CCN(C)CC2)c2nonc12` [compound 270, 4-[(2-methoxyphenyl)thio]-7-[(4-methylpiperazin-1-yl)sulfonyl]-2,1,3-benzoxadiazole], the IC50 against ROC1/CUL1 and on TRAF6/Uev1A/Ubc13 was not below 20 µM each time.
Regarding `O=C(Nc1ccc(N2CCN(c3ncc(C(F)(F)F)cc3Cl)CC2)c2nonc12)c1cccs1` [compound 281, N-(7-{4-[3-chloro-5-(trifluoromethyl)pyridin-2-yl]piperazin-1-yl}-2,1,3-benzoxadiazol-4-yl)thiophene-2-carboxamide], the half-maximal inhibitory concentration (IC50) on ROC1/CUL1 and on TRAF6/Uev1A/Ubc13 was 1 to 20 µM in each case.
In the case of `O=[N+]([O-])c1ccc(N2CCC(Oc3ccccn3)CC2)c2nonc12` [compound 287, 4-nitro-7-[4-(pyridin-2-yloxy)piperidin-1-yl]-2,1,3-benzoxadiazole], the IC50 against ROC1/CUL1 and at TRAF6/Uev1A/Ubc13 was not below 20 µM in each case.
`Cc1ccc(-c2cc([N+](=O)[O-])cc3nonc23)cc1` [compound 476, 6-nitro-4-p-tolyl-2,1,3-benzoxadiazole]: the IC50 (against APC11/APC2; in test [1]; against TRAF6/Uev1A/Ubc13) was not below 20 µM throughout.
As for `O=[N+]([O-])c1cc(-c2ccc(C(F)(F)F)cc2C(F)(F)F)c2nonc2c1` [compound 477, 4-(2,4-bis[trifluoromethyl]phenyl)-6-nitro-2,1,3-benzoxadiazole], the IC50 against APC11/APC2 was 1 to 20 µM; in test [1], 1 to 20 µM; at TRAF6/Uev1A/Ubc13 it was not below 20 µM.
`Cc1cccc(-c2cc([N+](=O)[O-])cc3nonc23)c1` [compound 478, 6-nitro-4-m-tolyl-2,1,3-benzoxadiazole]: the figures for the concentration for half-maximal inhibition (IC50) (at APC11/APC2; in test [1]; against TRAF6/Uev1A/Ubc13) were 1 to 20 µM, 1 to 20 µM and not below 20 µM, respectively.
Take `O=[N+]([O-])c1cc(-c2cc(F)cc(F)c2)c2nonc2c1` [compound 479, 4-(3,5-difluorophenyl)-6-nitro-2,1,3-benzoxadiazole]: the half-inhibitory concentration (IC50) (against APC11/APC2; in test [1]; against TRAF6/Uev1A/Ubc13) was not below 20 µM throughout.
Take `O=[N+]([O-])c1cc(-c2cccc(C(F)(F)F)c2)c2nonc2c1` [compound 480, 4-(3-[trifluoromethyl]phenyl)-6-nitro-2,1,3-benzoxadiazole]: the IC50 was 1 to 20 µM on APC11/APC2, 1 to 20 µM in test [1] and not below 20 µM on TRAF6/Uev1A/Ubc13.
Take `CC(C)(C)c1ccc(-c2cc([N+](=O)[O-])cc3nonc23)cc1` [compound 481, 4-(4-t-butylphenyl)-6-nitro-2,1,3-benzoxadiazole]: the 50% inhibitory concentration (IC50) (against APC11/APC2; in test [1]; at TRAF6/Uev1A/Ubc13) was 1 to 20 µM throughout.
Consider `COc1ccccc1-c1cc([N+](=O)[O-])cc2nonc12` [compound 482, 4-(2-methoxyphenyl)-6-nitro-2,1,3-benzoxadiazole], for which the half-inhibitory concentration (IC50) (against APC11/APC2; in test [1]; against TRAF6/Uev1A/Ubc13) was not below 20 µM each time.
Consider `O=[N+]([O-])c1cc(-c2cccc3cccnc23)c2nonc2c1` [compound 483, 6-nitro-4-(quinolin-8-yl)-2,1,3-benzoxadiazole], for which the IC50 (against APC11/APC2; in test [1]; on TRAF6/Uev1A/Ubc13) was not below 20 µM throughout.
As to `Cc1ccc(C)c(-c2cc([N+](=O)[O-])cc3nonc23)c1` [compound 484, 4-(2,5-dimethylphenyl)-6-nitro-2,1,3-benzoxadiazole], the IC50 (against APC11/APC2; in test [1]; at TRAF6/Uev1A/Ubc13) was not below 20 µM throughout.
